# From patent US10765114B2, “4-amino-6-(pyridyl and 2-substitutedphenyl)-picolinates and 6-amino-2-(pyridyl and 2-substitutedphenyl)-pyrimidine-4-carboxylates and their use as herbicides” (Dow AgroSciences LLC, priority 2013, dated 2020)
# Read-outs that look alike come from different tables or passages of the source.
# What was measured:
# [1] = system: Key Broadleaf Weed and Crop Species; experiment: Post-Emergent Test II (Table 5); format: in vivo; details: post-emergence, 336 h; for pest or weed control at 70 g/ha: application rate 70 (kg ai/ha; footnote: g ai/ha); for pest or weed control at 140 g/ha: application rate 140 (kg ai/ha; footnote: g ai/ha)
# Summary of the method: (§1)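 Growth stage at treatment: first or second true leaf. Application: compound in acetone/DMSO diluted into an adjuvant-containing aqueous mix, sprayed at 187 L/ha at several rates. Assessment: visual 0-100% injury at 14 days against untreated plants.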
# [2] = system: Key Grass and Sedge Weeds as well as Grass Crops; experiment: Post-Emergent Test II (Table 6); format: in vivo; details: post-emergence, 336 h, 14 days after application; for pest or weed control at 70 g/ha: 70 g ai/ha; for pest or weed control at 140 g/ha: 140 g ai/ha
# Summary of the method: as §1
# [3] = Abutilon theophrasti, ABUTH: velvetleaf (Abutilon theophrasti), read-out: Visual Growth Reduction (%) 14 Days After Application ABUTH
# [4] = Amaranthus retroflexus, AMARE: redroot pigweed (Amaranthus retroflexus), read-out: Visual Growth Reduction (%) 14 Days After Application AMARE
# [5] = Brassica napus, BRSSS: oilseed rape, canola (Brassica napus), read-out: Visual Growth Reduction (%) 14 Days After Application BRSSS
# [6] = Chenopodium album, CHEAL: lambsquarters (Chenopodium album), read-out: Visual Growth Reduction (%) 14 Days After Application CHEAL
# [7] = Euphorbia heterophylla, EPHHL: wild poinsettia (Euphorbia heterophylla), read-out: Visual Growth Reduction (%) 14 Days After Application EPHHL
# [8] = Helianthus annuus, HELAN: sunflower (Helianthus annuus), read-out: Visual Growth Reduction (%) 14 Days After Application HELAN
# [9] = Viola tricolor, VIOTR: wild pansy (Viola tricolor), read-out: Visual Growth Reduction (%) 14 Days After Application VIOTR
# [10] = CYPSS, read-out: Visual Growth Reduction (%) 14 Days After Application CYPSS
# [11] = DIGSA: crabgrass (Digitaria sanguinalis), read-out: Visual Growth Reduction (%) 14 Days After Application DIGSA
# [12] = ECHSS, read-out: Visual Growth Reduction (%) 14 Days After Application ECHSS
# [13] = ORYSS (crop), read-out: Visual Growth Reduction (%) 14 Days After Application ORYSS
# [14] = SORVU: grain sorghum (Sorghum vulgare), read-out: Visual Growth Reduction (%) 14 Days After Application SORVU
# [15] = TRZSS (crop), read-out: Visual Growth Reduction (%) 14 Days After Application TRZSS
# [16] = ZEAMX: maize, corn (Zea mays), read-out: Visual Growth Reduction (%) 14 Days After Application ZEAMX
# [17] = SETFA: giant foxtail (Setaria faberi), read-out: Visual Growth Reduction (%) 14 Days After Application SETFA
smiles,measurement,setting,value
COC(=O)c1nc(-c2ccc(C(F)(F)F)c(F)c2C)c(F)c(N)c1Cl [Compound 41],pest or weed control at 70 g/ha,[1]; [3],75 to 84%
same,pest or weed control at 140 g/ha,[1]; [3],60 to 74%
same,pest or weed control at 70 g/ha,[1]; [4],0 to 29%
same,pest or weed control at 140 g/ha,[1]; [4],0 to 29%
same,pest or weed control at 70 g/ha,[1]; [5],0 to 29%
same,pest or weed control at 140 g/ha,[1]; [5],0 to 29%
same,pest or weed control at 70 g/ha,[1]; [6],45 to 59%
same,pest or weed control at 140 g/ha,[1]; [6],85 to 94%
same,pest or weed control at 70 g/ha,[1]; [7],0 to 29%
same,pest or weed control at 140 g/ha,[1]; [7],45 to 59%
same,pest or weed control at 70 g/ha,[1]; [8],95 to 100%
same,pest or weed control at 140 g/ha,[1]; [8],95 to 100%
same,pest or weed control at 70 g/ha,[1]; [9],0 to 29%
same,pest or weed control at 140 g/ha,[1]; [9],0 to 29%
same,pest or weed control at 70 g/ha,[2]; [10],0 to 29%
same,pest or weed control at 140 g/ha,[2]; [10],95 to 100%
same,pest or weed control at 70 g/ha,[2]; [11],0 to 29%
same,pest or weed control at 140 g/ha,[2]; [11],0 to 29%
same,pest or weed control at 70 g/ha,[2]; [12],0 to 29%
same,pest or weed control at 140 g/ha,[2]; [12],0 to 29%
same,pest or weed control at 70 g/ha,[2]; [13],0 to 29%
same,pest or weed control at 140 g/ha,[2]; [13],0 to 29%
same,pest or weed control at 70 g/ha,[2]; [14],0 to 29%
same,pest or weed control at 140 g/ha,[2]; [14],0 to 29%
same,pest or weed control at 70 g/ha,[2]; [15],0 to 29%
same,pest or weed control at 140 g/ha,[2]; [15],0 to 29%
same,pest or weed control at 70 g/ha,[2]; [16],0 to 29%
same,pest or weed control at 140 g/ha,[2]; [16],45 to 59%
"COC(=O)c1nc(-c2ccc(Cl)c(F)c2C(F)F)cc(N)c1Cl [Compound 53, methyl 4-amino-3-chloro-6-(4-chloro-2-(difluoromethyl)-3-fluorophenyl)picolinate]",pest or weed control at 70 g/ha,[1]; [3],85 to 94%
same,pest or weed control at 140 g/ha,[1]; [3],0 to 29%
same,pest or weed control at 70 g/ha,[1]; [4],95 to 100%
same,pest or weed control at 140 g/ha,[1]; [4],95 to 100%
same,pest or weed control at 70 g/ha,[1]; [5],45 to 59%
same,pest or weed control at 140 g/ha,[1]; [5],45 to 59%
same,pest or weed control at 70 g/ha,[1]; [6],95 to 100%
same,pest or weed control at 140 g/ha,[1]; [6],95 to 100%
same,pest or weed control at 70 g/ha,[1]; [7],0 to 29%
same,pest or weed control at 140 g/ha,[1]; [7],0 to 29%
same,pest or weed control at 70 g/ha,[1]; [8],60 to 74%
same,pest or weed control at 140 g/ha,[1]; [8],75 to 84%
same,pest or weed control at 70 g/ha,[1]; [9],0 to 29%
same,pest or weed control at 140 g/ha,[1]; [9],0 to 29%
same,pest or weed control at 70 g/ha,[2]; [10],0 to 29%
same,pest or weed control at 140 g/ha,[2]; [10],0 to 29%
same,pest or weed control at 70 g/ha,[2]; [11],0 to 29%
same,pest or weed control at 140 g/ha,[2]; [11],0 to 29%
same,pest or weed control at 70 g/ha,[2]; [12],0 to 29%
same,pest or weed control at 140 g/ha,[2]; [12],0 to 29%
same,pest or weed control at 70 g/ha,[2]; [13],0 to 29%
same,pest or weed control at 140 g/ha,[2]; [13],0 to 29%
same,pest or weed control at 70 g/ha,[2]; [17],0 to 29%
same,pest or weed control at 140 g/ha,[2]; [17],0 to 29%
same,pest or weed control at 70 g/ha,[2]; [14],0 to 29%
same,pest or weed control at 140 g/ha,[2]; [14],0 to 29%
same,pest or weed control at 70 g/ha,[2]; [15],0 to 29%
same,pest or weed control at 140 g/ha,[2]; [15],0 to 29%
same,pest or weed control at 70 g/ha,[2]; [16],0 to 29%
same,pest or weed control at 140 g/ha,[2]; [16],0 to 29%
"COC(=O)c1nc(-c2ccc(C(F)(F)F)nc2OC)c(F)c(N)c1Cl [Compound 44, methyl 4-amino-5-chloro-3-fluoro-2′-methoxy-6′-(trifluoromethyl)-2,3′-bipyridine-6-carboxylate]",pest or weed control at 70 g/ha,[1]; [3],45 to 59%
same,pest or weed control at 140 g/ha,[1]; [3],75 to 84%
same,pest or weed control at 70 g/ha,[1]; [4],0 to 29%
same,pest or weed control at 140 g/ha,[1]; [4],95 to 100%
same,pest or weed control at 70 g/ha,[1]; [5],45 to 59%
same,pest or weed control at 140 g/ha,[1]; [5],60 to 74%
same,pest or weed control at 70 g/ha,[1]; [6],85 to 94%
same,pest or weed control at 140 g/ha,[1]; [6],85 to 94%
same,pest or weed control at 70 g/ha,[1]; [7],0 to 29%
same,pest or weed control at 140 g/ha,[1]; [7],0 to 29%
same,pest or weed control at 70 g/ha,[1]; [8],85 to 94%
same,pest or weed control at 140 g/ha,[1]; [8],85 to 94%
same,pest or weed control at 70 g/ha,[1]; [9],0 to 29%
same,pest or weed control at 140 g/ha,[1]; [9],0 to 29%
same,pest or weed control at 70 g/ha,[2]; [10],0 to 29%
same,pest or weed control at 140 g/ha,[2]; [10],0 to 29%
same,pest or weed control at 70 g/ha,[2]; [11],0 to 29%
same,pest or weed control at 140 g/ha,[2]; [11],0 to 29%
same,pest or weed control at 70 g/ha,[2]; [13],0 to 29%
same,pest or weed control at 140 g/ha,[2]; [13],0 to 29%
same,pest or weed control at 70 g/ha,[2]; [17],0 to 29%
same,pest or weed control at 140 g/ha,[2]; [17],0 to 29%
same,pest or weed control at 70 g/ha,[2]; [14],0 to 29%
same,pest or weed control at 140 g/ha,[2]; [14],0 to 29%
same,pest or weed control at 70 g/ha,[2]; [15],0 to 29%
same,pest or weed control at 140 g/ha,[2]; [15],0 to 29%
same,pest or weed control at 70 g/ha,[2]; [16],0 to 29%
same,pest or weed control at 140 g/ha,[2]; [16],0 to 29%
"COC(=O)c1nc(-c2ccc(Br)nc2)c(F)c(N)c1Cl [Compound 22, methyl 4-amino-6′-bromo-5-chloro-3-fluoro-[2,3′-bipyridine]-6-carboxylate]",pest or weed control at 70 g/ha,[1]; [3],95 to 100%
same,pest or weed control at 140 g/ha,[1]; [3],95 to 100%
same,pest or weed control at 70 g/ha,[1]; [4],95 to 100%
same,pest or weed control at 140 g/ha,[1]; [4],95 to 100%
same,pest or weed control at 70 g/ha,[1]; [5],95 to 100%
same,pest or weed control at 140 g/ha,[1]; [5],95 to 100%
same,pest or weed control at 70 g/ha,[1]; [6],95 to 100%
same,pest or weed control at 140 g/ha,[1]; [6],95 to 100%
same,pest or weed control at 70 g/ha,[1]; [7],95 to 100%
same,pest or weed control at 140 g/ha,[1]; [7],95 to 100%
same,pest or weed control at 70 g/ha,[1]; [8],85 to 94%
same,pest or weed control at 140 g/ha,[1]; [8],95 to 100%
same,pest or weed control at 70 g/ha,[1]; [9],95 to 100%
same,pest or weed control at 140 g/ha,[1]; [9],95 to 100%
same,pest or weed control at 70 g/ha,[2]; [10],95 to 100%
same,pest or weed control at 140 g/ha,[2]; [10],95 to 100%
same,pest or weed control at 70 g/ha,[2]; [11],85 to 94%
same,pest or weed control at 140 g/ha,[2]; [11],85 to 94%
same,pest or weed control at 70 g/ha,[2]; [12],85 to 94%
same,pest or weed control at 140 g/ha,[2]; [12],95 to 100%
same,pest or weed control at 70 g/ha,[2]; [13],30 to 44%
same,pest or weed control at 140 g/ha,[2]; [13],0 to 29%
same,pest or weed control at 70 g/ha,[2]; [17],85 to 94%
same,pest or weed control at 140 g/ha,[2]; [17],85 to 94%
same,pest or weed control at 70 g/ha,[2]; [14],95 to 100%
same,pest or weed control at 140 g/ha,[2]; [14],95 to 100%
same,pest or weed control at 70 g/ha,[2]; [15],85 to 94%
same,pest or weed control at 140 g/ha,[2]; [15],95 to 100%
same,pest or weed control at 70 g/ha,[2]; [16],85 to 94%
same,pest or weed control at 140 g/ha,[2]; [16],95 to 100%
